Laboratory results published in patent US8318424B2, “High-throughput RNA structure analysis” (The University of North Carolina at Chapel Hill, priority 2006, dated 2012).

How the values were obtained:
NCp7-RNA interactions = target: T1, NCp7-RNA interactions (Human immunodeficiency virus type 1 group M subtype B, UniProt P12493); test: AT-2 treatment of HIV-1 virions analyzed by hSHAPE; details: in virio compared with AT-2 treated virions
T1 construct: expressed in transfected cells; host or cells: 293T cells cotransfected with pNL4-3 and pHCMV-G; the protein sits in the released virus particles
Text: The most prominent protein ligand for genomic RNA in mature HIV virions is the nucleocapsid protein. The nucleocapsid protein (NCp7) contains two highly conserved zinc-knuckle motifs comprised of cysteine and histidine residues that coordinate zinc ions and bind preferentially to guanosine. These compact motifs are flanked by positively charged residues that interact at adjacent RNA elements. Zinc ejecting agents such as 2,2′-dithioldipyridine (or AT-2) quantitatively disrupt interactions between the zinc ion and its cysteine ligands to compromise NCp7-RNA interactions, but leave the surface of the virus particle intact. Nucleocapsid-RNA interactions were disrupted in situ by treating virions with AT-2. The resulting genomic RNA was analyzed using hSHAPE.
Aldrithiol-2 (AT-2, systematic name 2,2′-dithiodipyridine; 0.5 M in DMSO, 2.0 mL) or DMSO (2.0 mL) was added to 1.0 L virus supernatant and incubated overnight at 4° C. Virus particles from the (+) and (−) AT-2 experiments were pelleted separately by centrifugation (110,000 g, 4° C., 1.5 hours) through a 20% (w/v) sucrose cushion in phosphate buffered saline. Pellets were resuspended in 1.0 mL NMIA reaction buffer (50 mM Hepes (pH 8), 200 mM NaCl, 0.1 mM EDTA, and 10% fetal bovine serum). […]

[1] = Solubility of reagent stock in DMSO; format: physicochemical; details: organic solvent or mixture; 10× stock in DMSO; read-out: stock concentration limit due to solubility of the reagent
Protocol: The concentration of this solution can vary with RNA length. For RNA reads of 100, 200 and 300 nucleotides, 10×NMIA concentrations of 130, 65 and 30 mM, can be used.

[2] = Reagent hydrolysis followed by UV absorbance of the aminobenzoate product; format: physicochemical
Protocol: One (1) μL NMIA in DMSO was added to the (+) NMIA tube and 1 μL neat DMSO was added to the (−) NMIA tube. The tubes were then mixed well. The reaction was incubated for 5 NMIA hydrolysis half-lives. To estimate the NMIA half-life between 15° C. and 75° C., the following equation was used: half life(minutes)=360×exp[−0.102×temperature(° C.)]. […] Thus, at 37° C., the reaction was incubated for about 45 minutes.
(§1) Hydrolysis was followed by adding (1.5 mM NMIA or 2.0 mM 1M7 in 300 μL DMSO) reagent to 1.1× buffer (2.7 mL, 6.7 mM MgCl2, 111 mM NaCl, 111 mM HEPES (pH 8.0)) equilibrated at 37° C. in a cuvette. Pseudo-first-order rates were obtained by monitoring the absorbance of the hydrolysis product (at 360 nm for 2-methylaminobenzoate and 430 nm for 2-methylamino-4-nitrobenzoate). Rates of adduct formation for [^32P]-labeled pAp-ethyl (10,000 cpm/μL) were obtained by adding 10% (v/v) reagent (5 mM final NMIA or 1M7 in DMSO) to 1.1× reaction buffer, quenching the reaction with 1 vol 250 mM dithiothreitol, resolving by gel electrophoresis (30% polyacrylamide; 29:1 acrylamide:bisacrylamide; 0.4 mm×28.5 cm×23 cm; 30 W; 45 minutes), and quantifying by phosphorimaging. Reaction rates were obtained using an equation that accounts for parallel reaction of NMIA or 1M7 by 2′-O-adduct formation (kadduct) and by hydrolysis (khydrolysis): fraction product=1−exp[(kadduct[reagent]/khydrolysis)(e^−(khydrolysis)t−1)]. Synthesis of Bacillus subtilis RNase P RNA
The reagent hydrolysis was monitored as the increase in UV absorbance of the aminobenzoate products. […] In contrast, NMIA required over 20 minutes to react to completion (FIG. 5).

pAp-ethyl = test: 2′-O-adduct formation with [32P]-labeled pAp-ethyl; details: for change in rate of reaction with pAp-ethyl from 0 to 20 mM Mg2+: 0 to 20 mM Mg2+ (FIG. 6)
Protocol: as §1
The ability of each compound to react with 3′-phosphoethyl-5′-adenosine monophosphate (pAp-ethyl) was then evaluated. pAp-ethyl contains a 2′-hydroxyl and 3′-phosphodiester monoanion.

retroviral membrane = test: NMIA modification of genomic RNA inside HIV-1 viral particles
Protocol: The structure of HIV-1 genomic RNA inside infectious virions was analyzed by treating viral particles with NMIA and then extracting and processing the modified RNA (the in virio state). Numerous reproducible differences between the ex virio and in virio states were observed that report virion-specific RNA structures and RNA-protein interactions.
Concentrated samples of either purified viral particles or particles treated with AT-2 (500 μL) in NMIA reaction buffer were treated with NMIA (50 μL, 100 mM) or neat DMSO (50 μL) for 50 minutes at 37° C. The virus particle production, AT-2 treatment, and NMIA modification steps were performed as a single continuous process and without intermediate storage steps.

SMILES: c1ccc(SSc2ccccn2)nc1 [AT-2, 2,2′-dithiodipyridine]
- specificity of the effect of AT-2 treatment on SHAPE reactivity of genomic RNA (NCp7-RNA interactions): highly specific

SMILES: Cn1c(=O)oc(=O)c2ccccc21 [NMIA, N-methylisatoic anhydride]
- solubility [1]: ≤ 130 mM
- time required to react to completion ([2]; 37° C., pH 8.0 buffer): over 20 minutes
- half-life ([2]; pH 8, 37° C., from half life = 360×exp[−0.102×temperature], read-out: NMIA hydrolysis half-life): 8.3 min
- change in rate of reaction with pAp-ethyl from 0 to 20 mM Mg2+ (pAp-ethyl): greater than 2 fold
- passage across the retroviral membrane (retroviral membrane): readily crosses the retroviral membrane

SMILES: Cn1c(=O)oc(=O)c2ccc([N+](=O)[O-])cc21 [1M7, 1-methyl-7-nitroisatoic anhydride]
- time until reaction is complete ([2]; 37° C., pH 8.0 buffer): about 70 seconds
- half-life at 0.2 mM ([2]; HEPES buffer with 10% DMSO, 37° C., pH 8.0 buffer, 10% DMSO): 0.233 min
- dependence of hydrolysis on Mg2+ concentration ([2]; control experiments): independent of Mg^2+ concentration
- increase in rates of hydrolysis and of 2′-hydroxyl acylation relative to NMIA (pAp-ethyl): 20 fold
- change in rate of reaction with pAp-ethyl from 0 to 20 mM Mg2+ (pAp-ethyl): negligible
- rate of reaction with pAp-ethyl, compared with NMIA (pAp-ethyl; 5 mM reagent): significantly more rapidly
